Measurements taken from patent publication US10753947B2, “Methods for screening voltage-gated proteins” (D.E. Shaw Research, LLC, priority 2012, dated 2020).
Positions count from the first letter of the chain named. Read-outs that look alike come from different tables or passages of the source.

What was measured:
[1] = target: T1, Shaker R362S with alpha pore open (R1S) (Drosophila melanogaster, UniProt P08510, DUP563-563/L584V/Q583H/R362S); assay: Omega currents (Iω) of Shaker R1S in Xenopus oocytes, two electrode voltage-clamp; assay type: cell-based; conditions: 30, 100 and 300 μM La3+; test pulses +60 mV to -300 mV, holding -50 mV
T1 construct: expressed in transfected cells; host or cells: Xenopus oocytes injected with cRNA (vector pBSTA)
T1 sequence (P08510 with tags, fused parts or gaps R362S/DUP563-563/Q583H/L584V): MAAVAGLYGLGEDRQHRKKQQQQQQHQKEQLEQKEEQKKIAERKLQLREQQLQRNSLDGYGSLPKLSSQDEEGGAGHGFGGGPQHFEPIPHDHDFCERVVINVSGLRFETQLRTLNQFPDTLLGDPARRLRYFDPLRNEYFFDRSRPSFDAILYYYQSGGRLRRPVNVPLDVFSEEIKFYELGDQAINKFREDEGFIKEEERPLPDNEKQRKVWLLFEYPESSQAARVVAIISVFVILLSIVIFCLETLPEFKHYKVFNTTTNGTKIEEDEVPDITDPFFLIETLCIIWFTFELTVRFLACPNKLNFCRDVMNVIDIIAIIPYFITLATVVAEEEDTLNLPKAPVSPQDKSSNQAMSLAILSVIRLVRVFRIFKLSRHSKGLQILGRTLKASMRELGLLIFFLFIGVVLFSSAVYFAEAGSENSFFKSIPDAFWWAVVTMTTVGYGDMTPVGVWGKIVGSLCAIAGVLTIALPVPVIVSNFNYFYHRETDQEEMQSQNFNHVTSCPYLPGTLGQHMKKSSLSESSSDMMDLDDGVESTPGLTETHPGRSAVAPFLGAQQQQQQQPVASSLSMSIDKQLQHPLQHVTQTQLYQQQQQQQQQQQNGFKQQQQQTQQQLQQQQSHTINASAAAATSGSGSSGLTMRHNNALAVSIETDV
Excerpt: (§1) The coding cDNAs of Shaker “wild-type” (hereinafter WT) base construct (Shaker H4, with intact inactivation), Shaker R362S with alpha pore open (hereinafter R1S) and Shaker with the alpha pore closed by mutation W434F (herein after R1S/W434F) were cloned into a high expression vector pBSTA. The C-terminus of all constructs was tagged with eGFP. Transcripted cRNA was produced using the mMessage mMachine kit (Ambion Inc.).
(§2) Two to four days past injection of cRNA into stage V-VI Xenopus oocytes (NASCO), omega currents (Iω) and currents through the alpha pore (Iα) were recorded with the two electrode voltage-clamp technique making use of a TURBO TEC-05× amplifier (npi electronic GmbH). Currents were filtered at 10 kHz and sampled at 20 kHz. The bath solution contained (in mM): NaCl 96, KCl 2, CaCl2 1, MgCl2 1 and HEPES 5 (pH 7.5). Voltage-recording and current-injecting microelectrodes were filled with 3 M KCl and pulled to have resistances between 0.2 and 1 MΩ (see Stork et al., 2007). The pClamp software package v.10.1 (Molecular Devices, Inc.) was used for data acquisition and analysis.
(§3) Pulses (20 ms) from +60 to ˜300 mV were applied in 20 mV steps at 1 Hz from a holding potential of either −80 mV (WT, R1S/W434F) or ˜50 mV (R1S) (see FIG. 34B) to measure omega currents (Iω) without leak subtraction. […]

[2] = target: T2, Shaker R1S/W434F (alpha pore closed) (Drosophila melanogaster, UniProt P08510, DUP563-563/L584V/Q583H/R362S/W434F); assay: Omega currents (Iω) of Shaker R1S/W434F in Xenopus oocytes, two electrode voltage-clamp; assay type: cell-based; conditions: 100 μM La3+, steps from -80 mV to -200 mV, 20 ms pulses at 1 Hz
T2 construct: expressed in transfected cells; host or cells: Xenopus oocytes injected with cRNA (vector pBSTA)
T2 sequence (P08510 with tags, fused parts or gaps R362S/W434F/DUP563-563/Q583H/L584V): as the sequence (P08510 with tags, fused parts or gaps R362S/DUP563-563/Q583H/L584V) above, with W434F counted along it
Excerpt: as §1, §2, §3

[3] = system: Kv2.1 R293S/R294S/R300S (R-1S/R0S/R2S); assay: Omega currents (Iω) of Kv2.1 R-1S/R0S/R2S in Xenopus oocytes, two electrode voltage-clamp; assay type: cell-based, human
Excerpt: The coding cDNAs of KV2.1 “wild-type” (hereinafter WT) base construct (hKv2.1-m7-c3 is human Kv2.1, residues 1-858, mutated to confer AgTx2 sensitivity and to remove extracellular cysteine residues) was synthesized (Entelchon GmbH) and cloned into the high expression vector pBSTA.
Mutations Kv2.1 R294N (hereinafter R0N), Kv2.1 R300S (hereinafter R2S), Kv2.1 R294C/R300S (hereinafter R0C/R2S), Kv2.1 R293S/R294S (hereinafter R-1S/R0S), Kv2.1 R293S/R294C (hereinafter R-1S/R0C), Kv2.1 R293S/R294S/R300S (hereinafter R-1S/R0S/R2S), Kv2.1 R293S/R294C/R300S (hereinafter R-1S/R0C/R2S) were introduced using the QuikChange® Lightning Site-Directed Mutagenesis Kit (Stratagene) with mutagenic primers according to the manufacturer's instructions. All constructs were checked by restriction site mapping and sequencing.
as §2, with “Transcripted cRNA was produced using the mMessage mMachine kit (Ambion Inc.). Two” for “Two”, “(NASCO) potassium” for “(NASCO), omega currents (Iω) and”
Recording of alpha currents (Iα): Pulses of 100 ms were applied from ˜60 to +60 mV in 10 mV steps at 1 Hz from a holding potential of ˜80 mV to the Kv2.1 channel constructs to measure alpha currents (Iα). Passive leak currents were subtracted online using a P/4 procedure: pClamp software generates a series of scaled-down replica sweeps of the main stimulus waveform. […] The cell's response to the subsweeps is used to calculate the degree of passive cellular current leak. This is then subtracted from acquired data on the associated input signal. Recording of omega currents (Iω): Pulses of 10 ms were applied from a holding potential of ˜80 to ˜300 mV in 20 mV steps at 0.3 Hz to the Kv2.1 channel constructs. Iω were recorded without leak subtraction.
AgTx2 (Sigma Aldrich) was reconstituted according to manufacturer's instructions with 10 mM Tris, pH 7.5, containing 100 mM sodium chloride, 0.1% bovine serum albumin, and 1 mM EDTA. LaCl3 was from Sigma Aldrich; MTSEA, MTSES and MTSET were from Biotium.
La^3+, AgTx2, MTSEA, MTSES and MTSET and were applied to Xenopus oocytes by means of a fast perfusion technique (ScreeningTool as described by Baburin et al., 2006). Origin software v.7.0 (OriginLab Corp.) was employed for data analysis. Inhibition of inward currents was defined as 1−Iω,drug/Iω,control, where Iω,drug is the current response in the presence of a given concentration of lanthanum (La^3+) and Iω, control is the control current through the omega pore. The concentration-inhibition curve was fitted using the Hill equation: Iω,drug/Iω,control=A+[…] where IC50 is the concentration at which Iω inhibition is half-maximal, C is the applied La^3+ concentration, A is the fraction of Iω current that blocked and nH is the Hill coefficient. Data are given as mean±SE (n=number of experiments).

Kv1.1 = Kv1.1 (Homo sapiens, UniProt Q09470); conditions: cited from earlier work
Sequence of Kv1.1 (Q09470 whole entry): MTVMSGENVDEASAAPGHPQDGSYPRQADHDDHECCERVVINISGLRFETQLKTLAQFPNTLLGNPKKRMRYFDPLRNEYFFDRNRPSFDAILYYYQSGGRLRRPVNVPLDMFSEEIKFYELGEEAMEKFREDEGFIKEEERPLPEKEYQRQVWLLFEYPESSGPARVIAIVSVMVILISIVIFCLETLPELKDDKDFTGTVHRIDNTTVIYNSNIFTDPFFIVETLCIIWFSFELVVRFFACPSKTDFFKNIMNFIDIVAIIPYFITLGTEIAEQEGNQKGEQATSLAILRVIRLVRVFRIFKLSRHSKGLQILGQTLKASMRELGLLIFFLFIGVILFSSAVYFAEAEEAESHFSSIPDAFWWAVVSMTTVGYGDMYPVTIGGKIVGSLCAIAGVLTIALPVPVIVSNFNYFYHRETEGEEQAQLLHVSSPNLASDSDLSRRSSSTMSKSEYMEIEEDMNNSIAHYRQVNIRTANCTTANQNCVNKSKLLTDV

Kv1.2 = Kv1.2 (Homo sapiens, UniProt P16389); conditions: cited from earlier work
Sequence of Kv1.2 (P16389 whole entry): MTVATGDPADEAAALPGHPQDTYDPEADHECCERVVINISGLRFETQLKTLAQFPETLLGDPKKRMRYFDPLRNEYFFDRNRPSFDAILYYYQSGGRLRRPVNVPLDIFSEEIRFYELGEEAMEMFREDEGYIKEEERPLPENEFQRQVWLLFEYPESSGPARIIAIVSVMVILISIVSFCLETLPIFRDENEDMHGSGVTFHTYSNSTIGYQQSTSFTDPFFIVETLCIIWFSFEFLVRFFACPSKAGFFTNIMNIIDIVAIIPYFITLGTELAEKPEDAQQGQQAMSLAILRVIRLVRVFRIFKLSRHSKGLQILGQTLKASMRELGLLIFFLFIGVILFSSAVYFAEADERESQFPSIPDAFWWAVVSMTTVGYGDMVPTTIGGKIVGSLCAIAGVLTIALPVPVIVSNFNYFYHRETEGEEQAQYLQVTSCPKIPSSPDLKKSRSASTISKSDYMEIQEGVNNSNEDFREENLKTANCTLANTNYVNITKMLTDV

Kv1.5 = Kv1.5 (Homo sapiens, UniProt P22460); conditions: Table 4; cited from earlier work
Sequence of Kv1.5 (P22460 whole entry): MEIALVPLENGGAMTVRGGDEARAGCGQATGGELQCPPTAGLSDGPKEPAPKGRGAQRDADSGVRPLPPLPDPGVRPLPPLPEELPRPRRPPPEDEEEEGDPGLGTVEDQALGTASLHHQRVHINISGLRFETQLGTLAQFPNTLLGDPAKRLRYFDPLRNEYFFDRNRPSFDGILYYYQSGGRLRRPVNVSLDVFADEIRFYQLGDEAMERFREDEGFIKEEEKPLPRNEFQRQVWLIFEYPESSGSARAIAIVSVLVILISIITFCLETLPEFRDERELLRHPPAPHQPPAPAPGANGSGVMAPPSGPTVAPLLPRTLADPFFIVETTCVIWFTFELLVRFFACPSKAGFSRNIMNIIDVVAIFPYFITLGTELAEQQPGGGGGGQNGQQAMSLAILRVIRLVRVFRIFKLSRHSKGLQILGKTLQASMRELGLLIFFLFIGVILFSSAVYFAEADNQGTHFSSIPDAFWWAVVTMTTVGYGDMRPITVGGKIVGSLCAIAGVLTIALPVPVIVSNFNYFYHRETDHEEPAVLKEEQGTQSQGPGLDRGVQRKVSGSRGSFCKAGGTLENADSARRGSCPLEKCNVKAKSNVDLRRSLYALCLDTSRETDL

KCa3.1 = KCa3.1 (Homo sapiens, UniProt O15554); conditions: Table 4; cited from earlier work
Sequence of KCa3.1 (O15554 whole entry): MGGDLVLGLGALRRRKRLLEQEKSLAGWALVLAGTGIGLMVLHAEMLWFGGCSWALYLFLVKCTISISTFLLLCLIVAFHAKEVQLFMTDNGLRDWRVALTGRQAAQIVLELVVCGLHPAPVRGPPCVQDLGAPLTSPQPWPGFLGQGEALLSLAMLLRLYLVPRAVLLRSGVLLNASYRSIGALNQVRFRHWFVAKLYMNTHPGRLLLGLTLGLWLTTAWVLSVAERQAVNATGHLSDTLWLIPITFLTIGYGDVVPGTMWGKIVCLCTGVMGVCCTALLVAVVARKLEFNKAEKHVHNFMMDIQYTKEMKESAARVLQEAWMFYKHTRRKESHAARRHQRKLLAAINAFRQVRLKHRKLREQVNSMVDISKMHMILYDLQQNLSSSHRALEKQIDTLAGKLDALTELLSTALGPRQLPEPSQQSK

Kv1.6 = Kv1.6 (Homo sapiens, UniProt P17658); conditions: Table 4; read-out: IC50 Others: Kv1.6; cited from earlier work
Sequence of Kv1.6 (P17658 whole entry): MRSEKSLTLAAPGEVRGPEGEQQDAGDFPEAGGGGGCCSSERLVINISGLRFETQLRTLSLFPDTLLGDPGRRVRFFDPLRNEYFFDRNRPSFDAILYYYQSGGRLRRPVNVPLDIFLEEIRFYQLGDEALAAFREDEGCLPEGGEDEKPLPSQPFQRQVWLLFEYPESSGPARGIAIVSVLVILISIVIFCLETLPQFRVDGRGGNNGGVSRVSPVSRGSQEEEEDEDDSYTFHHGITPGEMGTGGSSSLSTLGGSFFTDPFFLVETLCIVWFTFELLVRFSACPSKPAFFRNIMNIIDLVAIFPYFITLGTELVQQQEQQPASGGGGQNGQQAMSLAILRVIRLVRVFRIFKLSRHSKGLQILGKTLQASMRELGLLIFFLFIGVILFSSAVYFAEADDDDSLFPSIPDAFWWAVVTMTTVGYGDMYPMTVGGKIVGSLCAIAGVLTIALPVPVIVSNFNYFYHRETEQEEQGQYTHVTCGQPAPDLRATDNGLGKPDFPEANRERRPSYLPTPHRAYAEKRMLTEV

Kv1.4 = Kv1.4 (Homo sapiens, UniProt P22459); conditions: Table 4; read-out: IC50 Others: Kv1.4; cited from earlier work
Sequence of Kv1.4 (P22459 whole entry): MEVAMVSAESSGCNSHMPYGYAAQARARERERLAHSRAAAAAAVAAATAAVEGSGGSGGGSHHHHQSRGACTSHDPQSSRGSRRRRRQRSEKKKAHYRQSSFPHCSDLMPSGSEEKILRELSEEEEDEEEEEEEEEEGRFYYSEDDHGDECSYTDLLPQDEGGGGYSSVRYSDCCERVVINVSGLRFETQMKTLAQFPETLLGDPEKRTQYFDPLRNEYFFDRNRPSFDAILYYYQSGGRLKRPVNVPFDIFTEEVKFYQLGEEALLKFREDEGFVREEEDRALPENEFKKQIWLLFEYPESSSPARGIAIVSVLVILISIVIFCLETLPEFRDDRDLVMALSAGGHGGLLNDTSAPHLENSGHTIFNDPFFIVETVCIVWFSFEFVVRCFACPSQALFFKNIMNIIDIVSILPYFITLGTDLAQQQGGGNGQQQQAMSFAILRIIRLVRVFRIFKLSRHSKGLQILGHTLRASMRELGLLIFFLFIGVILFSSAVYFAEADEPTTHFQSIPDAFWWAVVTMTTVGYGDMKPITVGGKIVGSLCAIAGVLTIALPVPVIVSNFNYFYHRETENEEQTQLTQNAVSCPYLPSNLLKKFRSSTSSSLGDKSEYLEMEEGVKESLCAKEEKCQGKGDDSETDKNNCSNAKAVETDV

Kv1.3 = Kv1.3 (Homo sapiens, UniProt P22001); conditions: cited from earlier work
Sequence of Kv1.3 (P22001 whole entry): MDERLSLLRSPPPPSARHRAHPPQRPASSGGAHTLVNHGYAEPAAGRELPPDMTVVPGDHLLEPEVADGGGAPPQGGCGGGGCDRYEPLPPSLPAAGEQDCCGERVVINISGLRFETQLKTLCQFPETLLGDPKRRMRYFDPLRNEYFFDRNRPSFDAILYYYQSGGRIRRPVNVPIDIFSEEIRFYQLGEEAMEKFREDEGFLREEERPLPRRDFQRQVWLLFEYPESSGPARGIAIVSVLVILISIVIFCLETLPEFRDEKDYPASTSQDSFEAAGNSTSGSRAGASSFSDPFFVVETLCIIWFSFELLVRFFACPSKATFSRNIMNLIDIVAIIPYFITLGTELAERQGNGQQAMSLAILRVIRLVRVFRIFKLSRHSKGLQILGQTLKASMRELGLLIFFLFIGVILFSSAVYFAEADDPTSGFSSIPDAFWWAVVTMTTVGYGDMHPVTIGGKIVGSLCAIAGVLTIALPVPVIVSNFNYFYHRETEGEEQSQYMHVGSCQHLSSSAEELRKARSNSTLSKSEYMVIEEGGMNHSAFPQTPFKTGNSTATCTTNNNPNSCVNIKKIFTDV

Shaker = Shaker (Drosophila melanogaster, UniProt P08510, DUP563-563/L584V/Q583H); conditions: Table 5, cited from earlier work
Sequence of Shaker (P08510 with tags, fused parts or gaps DUP563-563/Q583H/L584V): as the sequence (P08510 with tags, fused parts or gaps R362S/DUP563-563/Q583H/L584V) above, with S362R counted along it

Kv2.1 = target: T3, Kv2.1 (Homo sapiens, UniProt Q14721); conditions: Table 5; read-out: IC50, channel Kv2.1; cited from earlier work
T3 sequence (Q14721 1-858): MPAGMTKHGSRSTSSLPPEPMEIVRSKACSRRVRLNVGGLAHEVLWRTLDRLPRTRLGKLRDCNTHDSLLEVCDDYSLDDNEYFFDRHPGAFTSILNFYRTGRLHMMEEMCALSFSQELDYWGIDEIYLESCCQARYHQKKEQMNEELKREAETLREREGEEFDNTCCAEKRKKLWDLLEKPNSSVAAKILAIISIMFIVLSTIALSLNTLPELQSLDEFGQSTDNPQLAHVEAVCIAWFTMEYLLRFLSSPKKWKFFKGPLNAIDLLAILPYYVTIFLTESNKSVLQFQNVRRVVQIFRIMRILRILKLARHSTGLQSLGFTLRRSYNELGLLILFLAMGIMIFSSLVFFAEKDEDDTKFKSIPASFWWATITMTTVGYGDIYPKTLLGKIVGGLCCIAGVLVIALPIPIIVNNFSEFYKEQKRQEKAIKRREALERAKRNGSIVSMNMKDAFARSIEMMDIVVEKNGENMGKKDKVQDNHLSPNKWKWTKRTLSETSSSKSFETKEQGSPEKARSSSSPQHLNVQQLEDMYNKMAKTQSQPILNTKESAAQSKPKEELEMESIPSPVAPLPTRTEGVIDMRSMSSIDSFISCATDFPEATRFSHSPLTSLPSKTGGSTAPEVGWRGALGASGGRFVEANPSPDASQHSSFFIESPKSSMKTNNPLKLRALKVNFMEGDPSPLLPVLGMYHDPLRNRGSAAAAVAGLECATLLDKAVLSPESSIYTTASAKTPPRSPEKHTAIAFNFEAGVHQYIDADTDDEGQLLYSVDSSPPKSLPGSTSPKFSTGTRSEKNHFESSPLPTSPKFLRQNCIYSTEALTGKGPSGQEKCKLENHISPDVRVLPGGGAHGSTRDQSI

[4] = target: T4, Kv2.1 T359S K360G A366D S367A I383M Y384T K386V (Homo sapiens, UniProt Q14721, A366D/I383M/K360G/K386V/S367A/T359S/Y384T); conditions: Table 5; read-out: IC50, channel Kv2.1 T359S K360G A366D S367A I383M Y384T K386V; cited from earlier work
T4 sequence (Q14721 1-858 T359S/K360G/A366D/S367A/I383M/Y384T/K386V): T3 sequence (Q14721 1-858) with T359S, K360G, A366D, S367A, I383M, Y384T, K386V

[5] = Table 5, read-out: IC50, channel Kv1.3
[6] = Table 5, read-out: IC50, channel Kv1.1
[7] = Table 5, read-out: IC50, channel Kv1.2

For O.O.O.O.O.O.O.[Cl-].[Cl-].[Cl-].[La+3] [La3+, Lanthanum(III) chloride heptahydrate], the “Block of omega current (Iω) of R1S Shaker” value [1] was “blocked in a concentration-dependent manner”, the “Block of Iω during the first pulse” value [2] was 31.8±3.6% and the “Block of omega currents at steady state” value ([2]; 5 oocytes) was 51.5±5.9%. The “Block of inward currents at negative potentials (Iω)” value ([3]; 30 μM to 10 mM La3+) was “blocked” and the “Hill coefficient nH” value ([3]; inward currents after 5 ms at -300 mV, Hill fit) was 0.8±0.1.
In the case of O=c1ccc2c(OCCCCOc3ccccc3)c3ccoc3cc2o1 [PAP-1], the IC50 (Kv1.1; Table 4, read-out: IC50 Kv1.1) is listed as 65 nM, the IC50 (Kv1.2; Table 4, read-out: IC50 Kv1.2) is listed as 250 nM and the IC50 (Kv1.5) is listed as 45 nM. The IC50 (KCa3.1) was 10000 nM, the IC50 (Kv1.6) was 31000 nM and the IC50 (Kv1.4) was 170 nM.
In the case of O=c1ccc2c(OCCCCc3ccccc3)c3ccoc3cc2o1 [Psora-4], the IC50 (Kv1.6) is given as 62 nM.
In the case of Charybdotoxin [Charybdotoxin (ChTX)], the IC50 (Kv1.3; Table 3, read-out: IC50 Values of Kv1.3 ion channel modulating agent) is listed as 0.19 nM, the IC50 (Kv1.3; [5]) is listed as 0.19 nM and the IC50 (Kv1.1; [6]) is listed as 1500 nM. For the same compound, the IC50 (Kv1.2; [7]) was 14 nM, the IC50 (Shaker; read-out: IC50, channel Shaker) was 227 nM and the IC50 (Kv2.1) was greater than 2000 nM.
For hanatoxin [HaTx], the IC50 (Kv1.3; [5]) is listed as greater than 500 nM, the IC50 (Kv1.1; [6]) is listed as greater than 500 nM and the IC50 (Kv1.2; [7]) is listed as greater than 2000 nM. For the same compound, the “IC50, channel Shaker” value (Shaker; result in words) was “Weak”, the IC50 (Kv2.1) was 107 nM and the IC50 [4] was 102 nM.
